For four compounds, MIC results are on record in US20230295149A1, “MONOBACTAM COMPOUNDS, THEIR PREPARATION AND USE AS ANTIBACTERIAL AGENTS” (NINGXIA ACADEMY OF AGRICULTURE AND FORESTRY SCIENCES, priority 2020, published 2023).

Common to all, as to experiment: MIC determination, broth microdilution
Format in all cases: cell-based
For orientation: Dilution methods test growth across graded concentrations, often in twofold steps.

The subject of assay [1] is E. coli 8739. To be noted: Escherichia coli, 37° C., 18-24 hours, read-out: Strain 2 MIC. As to the method:
(§1) Compounds of this invention were tested for antimicrobial activity by determining minimum inhibitory concentrations (MICs, in μg/mL) using the broth microdilution method according to the guidelines of the Clinical Laboratories and Standards Institute (“Methods for Dilution Antimicrobial Susceptibility Tests for Bacteria that Grow Aerobically”, Approved standard, 7th ed., Clinical and Laboratory Standards Institute (CLSI) Document M7-A8, Wayne, Pa., USA, 2009.). Test compounds were dissolved in DMSO. The compounds were then diluted in microbial growth medium (Mueller Hinton Broth II, cation adjusted) resulting in a final concentration range of 0.063-64 μg/mL in serial two-fold dilution. In all cases the final DMSO concentration was less than 0.5%. Bacteria were added to 96-well microtitre plates containing the two-fold dilutions of the compounds; the final cell density was approximately 5×10^5 colony forming units/mL (CFU/mL). Plates were incubated at 37° C. for 18-24 hours and read visually. The MIC, i.e. the lowest concentration of the test compound that inhibited visible growth of the bacteria, was recorded. The same assay conditions were used when the compounds of this invention were tested in combination with—lactamase inhibitors. While the compounds of this invention were serially diluted as described above, a constant concentration of the inhibitor of 4 mg/L was used. Bacterial strains that were used to evaluate the antimicrobial activity using the MIC determination included but were not limited to E. coli clinical isolate, E. coli 8739, K. pneumoniae clinical isolate, K. pneumoniae 700603, E. cloacae clinical isolate, E. cloacae 700323, A. baumannii clinical isolate, A. baumannii 19606, P. aeruginosa clinical isolate, P. aeruginosa 9027.

Assay [2] has as its system E. cloacae 700323. Conditions: Enterobacter cloacae, 37° C., 18-24 hours, read-out: Strain 6 MIC. On the procedure: as §1
The subject of assay [3] is E. cloacae clinical isolate. Conditions: Enterobacter cloacae, 37° C., 18-24 hours, read-out: Strain5 MIC. As to the method: as §1
Assay [4] concerns A. baumannii 19606. To be noted: Acinetobacter baumannii, 37° C., 18-24 hours, read-out: Strain8 MIC. As to the method: as §1
For assay [5], the system named is K. pneumoniae 700603. Conditions: Klebsiella pneumoniae, 37° C., 18-24 hours, read-out: Strain 4 MIC. On the procedure: as §1
The test system of assay [6] is P. aeruginosa clinical isolate. Conditions: Pseudomonas aeruginosa, 37° C., 18-24 hours, read-out: Strain 9 MIC. On the procedure: as §1
The subject of assay [7] is E. coli clinical isolate. To be noted: Escherichia coli, 37° C., 18-24 hours, read-out: Strain 1 MIC. On the procedure: as §1
Assay [8] concerns P. aeruginosa 9027. Conditions: Pseudomonas aeruginosa, 37° C., 18-24 hours, read-out: Strain 10 MIC. As to the method:
as §1

For assay [9], the system named is A. baumannii clinical isolate. To be noted: Acinetobacter baumannii, 37° C., 18-24 hours, read-out: Strain 7 MIC. As to the method:
as §1

Assay [10] concerns K. pneumoniae clinical isolate. To be noted: Klebsiella pneumoniae, 37° C., 18-24 hours, read-out: Strain 3 MIC. As to the method: as §1

What is called MIC is the lowest concentration found to suppress growth. As to `CC1(C)[C@H](NC(=O)/C(=N\O[C@@H](COc2ccc(C(=N)N[C@H]3CCCNC3)cc2)C(=O)O)c2nc(N)sc2Cl)C(=O)N1OS(=O)(=O)O` [Example 11, (S)-2-((((Z)-1-(2-Amino-5-chlorothiazol-4-yl)-2-(((S)-2,2-dimethyl-4-oxo-1-(sulfooxy)azetidin-3-yl)amino)-2-oxoethylidene)amino)oxy)-3-(4-(N—((S)-piperidin-3-yl)carbamimidoyl)phenoxy)propanoic acid], the MIC in [1] stood at 0.5 µg/mL; in [2] it was 64 µg/mL; in assay [3], 32 µg/mL; in assay [4], 32 µg/mL; in [5], 64 µg/mL; in assay [6], 4 µg/mL. For the same compound, the MIC in assay [7] is 0.5 µg/mL; in assay [8] it was 2 µg/mL; in [9] it was 16 µg/mL; in assay [10], 32 µg/mL.
For the compound `C[C@H]1[C@H](NC(=O)/C(=N\O[C@@H](COc2ccc(C(=N)N[C@H]3CCCNC3)cc2)C(=O)O)c2nc(N)sc2Cl)C(=O)N1S(=O)(=O)O` [Example 9, (S)-2-((((Z)-1-(2-Amino-5-chlorothiazol-4-yl)-2-(((2S,3S)-2-methyl-4-oxo-1-sulfoazetidin-3-yl)amino)-2-oxoethylidene)amino)oxy)-3-(4-(N—((S)-piperidin-3-yl)carbamimidoyl)phenoxy)propanoic acid], the MIC stood at 0.5 µg/mL in assay [1]; 32 µg/mL in [2]; 64 µg/mL in assay [3]; 16 µg/mL in [4]; 64 µg/mL in assay [5]; 16 µg/mL in [6]. In addition, the MIC in assay [7] was 1 µg/mL; in assay [8], 1 µg/mL; in assay [9], 32 µg/mL; in [10], 32 µg/mL.
For the compound `CC1(C)[C@H](NC(=O)/C(=N\O[C@@H](COc2ccc(C(=N)N[C@@H]3CCCNC3)cc2)C(=O)O)c2nsc(N)n2)C(=O)N1OS(=O)(=O)O` [Example 4, (S)-2-((((Z)-1-(5-Amino-1,2,4-thiadiazol-3-yl)-2-(((S)-2,2-dimethyl-4-oxo-1-(sulfooxy)azetidin-3-yl)amino)-2-oxoethylidene)amino)oxy)-3-(4-(N—((R)-piperidin-3-yl)carbamimidoyl)phenoxy)propanoic acid], the MIC was determined as 0.25 µg/mL in assay [1]; 64 µg/mL in [2]; 16 µg/mL in assay [3]; 16 µg/mL in assay [4]; 64 µg/mL in assay [5]; 2 µg/mL in assay [6]. In addition, the MIC in assay [7] turned out to be 0.25 µg/mL; in [8] it was 1 µg/mL; in [9] it was 8 µg/mL; in assay [10] it was 8 µg/mL.
In the case of `CC1(C)[C@H](NC(=O)/C(=N\O[C@@H](COc2ccc(C(=N)N[C@@H]3CCNC3)cc2)C(=O)O)c2nc(N)sc2Cl)C(=O)N1OS(=O)(=O)O` [Example 10, (S)-2-((((Z)-1-(2-Amino-5-chlorothiazol-4-yl)-2-(((S)-2,2-dimethyl-4-oxo-1-(sulfooxy)azetidin-3-yl)amino)-2-oxoethylidene)amino)oxy)-3-(4-(N—((R)-pyrrolidin-3-yl)carbamimidoyl)phenoxy)propanoic acid], the MIC came to 0.25 µg/mL in [1]; 4 µg/mL in assay [2]; 2 µg/mL in assay [3]; 8 µg/mL in [4]; 1 µg/mL in assay [5]; 2 µg/mL in assay [6]. Moreover, the MIC in assay [7] was determined as 1 µg/mL; in [8], 2 µg/mL; in [9] it was 8 µg/mL; in assay [10] it was 1 µg/mL.
